Experimental data reported in US11999727B2 (Tango Therapeutics, Inc., priority 2020, dated 2024).

How the values were obtained:
PRMT5 [1] = target: T1, PRMT5 (Homo sapiens, UniProt O14744); experiment: PRMT5 biochemical IC50 assay with SAM as cofactor; conditions: PRMT5, SAM as cofactor; read-out: SAM IC50
T1 construct: purchased Viva (custom protein)

PRMT5 [2] = target: T1, PRMT5; experiment: PRMT5 biochemical IC50 assay with no cofactor; conditions: PRMT5, no cofactor; read-out: No Cofactor/rel IC50
Text: Table 1 indicates IC50 values (μM) against PRMT5 for exemplary compounds in the presence of SAM as cofactor, with no cofactor, and with MTA as cofactor, respectively (columns 4-6). […] Ki values can be calculated from the IC50 values as described in the Examples section. As detailed in the Examples section, for the assay performed in the presence of SAM, IC50=Ki×1.5 (Ki=IC50/1.5).

PRMT5 [3] = target: T1, PRMT5; experiment: PRMT5 biochemical IC50 assay with MTA as cofactor; conditions: PRMT5, MTA as cofactor; read-out: MTA IC50
[4] = tested on: HAP1 MTAP-intact cell line; experiment: SDMA in-cell western assay, HAP1 MTAP-intact; format: cell-based; conditions: Homo sapiens, HAP1, SDMA in-cell western, HAP1 MTAP-intact; read-out: MTAP HAP1 intact IC50
Method in brief: (§1)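 MTAP-null vs endogenous-MTAP HAP1 isogenic cells; in-cell western SDMA readout; IC50 per line.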

[5] = tested on: HAP1 MTAP-deleted cell line; experiment: SDMA in-cell western assay, HAP1 MTAP-deleted; format: cell-based; conditions: for IC50: Homo sapiens, HAP1, SDMA in-cell western, HAP1 MTAP-deleted, read-out: HAP1 MTAP deleted IC50; for MTAP intact/deleted ratio: IC50 ratio HAP1 MTAP-intact / HAP1 MTAP-deleted, SDMA in-cell western
Method in brief: as §1

[6] = tested on: HAP1 MTAP-deleted cell line; experiment: Viability assay, MTAP-deleted cell line; format: cell-based; conditions: Homo sapiens, HAP1, viability assay, MTAP-deleted cell line; read-out: HAP1 MTAP deleted viability
Text: Table 1 additionally indicates IC50 values in a viability assay for the MTAP-deleted cell line (column 10), indicating the effect of treatment with compound on cell survival.

T1 sequence (O14744 whole entry): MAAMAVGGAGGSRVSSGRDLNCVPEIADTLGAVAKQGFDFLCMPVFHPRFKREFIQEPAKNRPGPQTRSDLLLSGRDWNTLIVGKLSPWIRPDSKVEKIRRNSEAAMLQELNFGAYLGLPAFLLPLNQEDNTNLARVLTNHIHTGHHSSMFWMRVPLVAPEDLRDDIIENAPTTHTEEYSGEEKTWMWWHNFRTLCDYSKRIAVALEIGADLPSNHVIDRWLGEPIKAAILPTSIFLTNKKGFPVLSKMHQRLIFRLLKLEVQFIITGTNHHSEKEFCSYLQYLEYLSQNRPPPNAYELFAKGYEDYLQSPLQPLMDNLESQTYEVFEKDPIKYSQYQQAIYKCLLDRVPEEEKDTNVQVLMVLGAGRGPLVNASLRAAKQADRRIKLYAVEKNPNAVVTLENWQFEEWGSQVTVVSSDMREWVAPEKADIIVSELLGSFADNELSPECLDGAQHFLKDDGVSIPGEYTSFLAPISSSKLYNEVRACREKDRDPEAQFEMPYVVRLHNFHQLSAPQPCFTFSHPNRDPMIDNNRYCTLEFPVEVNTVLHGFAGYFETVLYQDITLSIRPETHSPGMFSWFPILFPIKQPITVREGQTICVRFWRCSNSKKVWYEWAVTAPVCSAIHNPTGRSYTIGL
T1 sequence (Q9BQA1 whole entry partner): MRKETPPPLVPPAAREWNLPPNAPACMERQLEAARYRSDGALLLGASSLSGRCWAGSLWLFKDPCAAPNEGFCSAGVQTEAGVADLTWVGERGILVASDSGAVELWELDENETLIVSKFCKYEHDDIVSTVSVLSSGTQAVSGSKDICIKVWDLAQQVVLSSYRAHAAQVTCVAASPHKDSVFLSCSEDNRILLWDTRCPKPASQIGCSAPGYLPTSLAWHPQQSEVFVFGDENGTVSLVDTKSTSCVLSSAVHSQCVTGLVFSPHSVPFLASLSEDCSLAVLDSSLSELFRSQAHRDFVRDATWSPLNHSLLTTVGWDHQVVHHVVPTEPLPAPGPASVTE

SMILES | IC50 (PRMT5 [1]) [nM] | IC50 (PRMT5 [2]) [nM] | IC50 (PRMT5 [3]) [nM] | IC50 [4] [nM] | IC50 [5] [nM] | MTAP intact/deleted ratio [5] | IC50 [6] [nM]
C[C@H]1CC[C@H](c2ccc(NS(C)(=O)=O)cc2)N(C(=O)C(=O)Nc2cncc(C(N)=O)c2)C1 (single isomer, unassigned) [Compound 462] | 50 to 500 | 50 to 500 | < 50 | > 1000 | 100 to 1000 | A (an IC50 ratio greater than or equal to 10 fold) | 1000 to 10000
COc1ncc(NC(=O)C(=O)N2C[C@@H](C)CC[C@@H]2c2ccc3[nH]ncc3c2)cc1C(N)=O (single isomer, unassigned) [Compound 464] | 50 to 500 | < 50 | < 50 | 100 to 1000 | < 100 | A (an IC50 ratio greater than or equal to 10 fold) | < 1000
COc1ncc(NC(=O)C(=O)N2C[C@H](C)CC[C@H]2c2ccc3[nH]ncc3c2)cc1C(N)=O (single isomer, unassigned) [Compound 465] | > 500 | > 500 | > 500 | > 1000 | > 1000 | B (an IC50 ratio greater than or equal to 3 fold but lower than 10 fold) | > 10000
C[C@H]1CC[C@H](c2csc3ccccc23)N(C(=O)C(=O)Nc2cncc(C(N)=O)c2)C1 (single isomer, unassigned) [Compound 466] | > 500 | > 500 | > 500 | > 1000 | > 1000 | C (an IC50 ratio of less than 3 fold) | > 10000
CNc1ccc([C@H]2CC[C@@H](C)CN2C(=O)C(=O)Nc2cnc(OC)c(C(N)=O)c2)cn1 (single isomer, unassigned) [Compound 467] | > 500 | > 500 | > 500 | > 1000 | – | C (an IC50 ratio of less than 3 fold) | > 10000
CNc1ccc([C@@H]2CC[C@H](C)CN2C(=O)C(=O)Nc2cnc(OC)c(C(N)=O)c2)cn1 (single isomer, unassigned) [Compound 468] | > 500 | > 500 | > 500 | > 1000 | > 1000 | C (an IC50 ratio of less than 3 fold) | > 10000
C[C@@H]1CC[C@@H](c2ccc(NS(C)(=O)=O)cc2)N(C(=O)C(=O)Nc2cncc(C(N)=O)c2)C1 (single isomer, unassigned) [Compound 469] | > 500 | > 500 | > 500 | > 1000 | > 1000 | C (an IC50 ratio of less than 3 fold) | > 10000
COc1ncc(NC(=O)C(=O)N2C[C@H](C)CC[C@H]2c2ccc(N)nc2)cc1C(N)=O (single isomer, unassigned) [Compound 471] | > 500 | > 500 | > 500 | > 1000 | > 1000 | C (an IC50 ratio of less than 3 fold) | > 10000
Cc1cc(NC(=O)C(=O)N2C[C@@H](C)CC[C@@H]2c2ccc(F)c(F)c2)cnc1N (single isomer, unassigned) [Compound 472] | > 500 | > 500 | > 500 | > 1000 | > 1000 | C (an IC50 ratio of less than 3 fold) | > 10000
C[C@@H]1CN(C(=O)C(=O)Nc2cncc(C(N)=O)c2)[C@@H](c2ccccc2)CC1(F)F (single isomer, unassigned) [Compound 473] | > 500 | > 500 | > 500 | > 1000 | > 1000 | C (an IC50 ratio of less than 3 fold) | > 10000
C[C@@H]1CC[C@@H](c2ccc(F)c(F)c2)N(C(=O)C(=O)Nc2cncc(C(N)=O)c2)C1 (single isomer, unassigned) [Compound 474] | > 500 | > 500 | > 500 | > 1000 | > 1000 | C (an IC50 ratio of less than 3 fold) | > 10000
C[C@H]1CC[C@H](c2ccc(F)c(F)c2)N(C(=O)C(=O)Nc2cncc(C(N)=O)c2)C1 (single isomer, unassigned) [Compound 475] | 50 to 500 | 50 to 500 | < 50 | > 1000 | 100 to 1000 | A (an IC50 ratio greater than or equal to 10 fold) | 1000 to 10000
